Data taken from patent US20040147788A1, “Stilbene derivatives and their use as aryl hydrocarbon receptor antagonistic ligands” (priority 2002, published 2004).

Assays:
ER = target: T1, ER (Homo sapiens, UniProt P03372); test: ER-mediated transactivation, ERE-driven Luciferase reporter stable cell line (MCF-7-Luc); type: cell-based; settings: trans-stilbenes; note: key: Ago: agonist; N.M.: not measurable
T1 construct: stably transfecting MCF-7 cells with the ERE-globin-tk-luc-SV-Neo plasmid; endogenous in cells; host or cells: MCF-7-Luc (MCF-7 stably transfected with ERE-globin-tk-luc-SV-Neo)
T1 sequence (P03372 1-595): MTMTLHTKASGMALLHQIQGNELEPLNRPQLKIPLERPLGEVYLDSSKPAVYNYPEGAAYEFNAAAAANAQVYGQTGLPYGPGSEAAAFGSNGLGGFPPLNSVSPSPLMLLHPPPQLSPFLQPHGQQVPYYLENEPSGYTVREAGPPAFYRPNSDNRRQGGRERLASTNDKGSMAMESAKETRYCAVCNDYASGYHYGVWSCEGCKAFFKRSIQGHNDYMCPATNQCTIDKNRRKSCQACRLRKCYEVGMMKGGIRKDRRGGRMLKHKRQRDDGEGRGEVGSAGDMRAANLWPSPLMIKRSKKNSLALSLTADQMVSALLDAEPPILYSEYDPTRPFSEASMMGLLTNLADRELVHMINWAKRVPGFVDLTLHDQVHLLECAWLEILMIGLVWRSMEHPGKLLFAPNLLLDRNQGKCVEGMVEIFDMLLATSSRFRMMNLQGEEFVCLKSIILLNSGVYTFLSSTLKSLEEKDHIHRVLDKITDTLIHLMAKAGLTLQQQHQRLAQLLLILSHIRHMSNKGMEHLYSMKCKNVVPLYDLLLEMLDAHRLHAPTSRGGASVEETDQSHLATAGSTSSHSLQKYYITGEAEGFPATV
Description: The human adenocarcinoma breast cell line MCF-7 was obtained from the American Tissue Culture Collection (Rockville, USA). The cells were established by stably transfecting MCF-7 cells with the ERE-globin-tk-luc-SV-Neo plasmid and thus expressed luciferase in an estrogen dependent manner MCF-7-Luc. […] Cells were incubated at 37° C. in a humidified 5% CO2 incubator. For experiments, cells were grown for 5 days in phenol red-free medium, containing 5% dextran-coated charcoal treated FCS (DCC-FCS). Medium was changed after 2 days. At day 5, cells were treated or not with compounds. Compounds were dissolved in ethanol.
For each condition, 15.103 cells were seeded per well in 12-well plates and treated, as described above, during 16 hours in a final volume of 0.5 mL. At the end of the treatment, cells were washed with PBS and lysed in 150 μl of lysis buffer (Promega, Charbonnieres, France). Luciferase activity was measured using the luciferase assay reagent (Promega), according to the manufacturer's instructions. Protein concentrations were measured using Bradford technique, to normalize the luciferase activity data. For each condition, average luciferase activity was calculated from the data of 3 independent wells.

A549 cell line = test: Cytotoxicity, MTT colorimetric assay; type: cell-based, human
Description: Cytotoxicity was evaluated on the A549 cell line. […] A MTT colorimetric assay was employed as described in (5) according to the established procedure 1. Drug stock solutions were prepared in EtOH and the final solvent concentration was=1% EtOH(v/v), a concentration without effect on cell replication. […] Cells were cultured at 37° C. in RPMI-1640 medium with streptomycin/penicillin and 5% (v/v) FCS in a humidified atmosphere containing 5% CO2. Initial seeding densities varied among the cell lines to ensure a final absorbance reading in control cultures in the range of 0.7-1 […] units. After the addition of the samples to the cell culture, the cells were incubated for 5 days before the MTT reagent was added. Each test was performed in duplicate and absorbance readings varied no more than 5%.

AhR = target: T2, AhR (Homo sapiens, UniProt P35869); settings: in humans; cited from earlier work
T2 sequence (P35869 11-848): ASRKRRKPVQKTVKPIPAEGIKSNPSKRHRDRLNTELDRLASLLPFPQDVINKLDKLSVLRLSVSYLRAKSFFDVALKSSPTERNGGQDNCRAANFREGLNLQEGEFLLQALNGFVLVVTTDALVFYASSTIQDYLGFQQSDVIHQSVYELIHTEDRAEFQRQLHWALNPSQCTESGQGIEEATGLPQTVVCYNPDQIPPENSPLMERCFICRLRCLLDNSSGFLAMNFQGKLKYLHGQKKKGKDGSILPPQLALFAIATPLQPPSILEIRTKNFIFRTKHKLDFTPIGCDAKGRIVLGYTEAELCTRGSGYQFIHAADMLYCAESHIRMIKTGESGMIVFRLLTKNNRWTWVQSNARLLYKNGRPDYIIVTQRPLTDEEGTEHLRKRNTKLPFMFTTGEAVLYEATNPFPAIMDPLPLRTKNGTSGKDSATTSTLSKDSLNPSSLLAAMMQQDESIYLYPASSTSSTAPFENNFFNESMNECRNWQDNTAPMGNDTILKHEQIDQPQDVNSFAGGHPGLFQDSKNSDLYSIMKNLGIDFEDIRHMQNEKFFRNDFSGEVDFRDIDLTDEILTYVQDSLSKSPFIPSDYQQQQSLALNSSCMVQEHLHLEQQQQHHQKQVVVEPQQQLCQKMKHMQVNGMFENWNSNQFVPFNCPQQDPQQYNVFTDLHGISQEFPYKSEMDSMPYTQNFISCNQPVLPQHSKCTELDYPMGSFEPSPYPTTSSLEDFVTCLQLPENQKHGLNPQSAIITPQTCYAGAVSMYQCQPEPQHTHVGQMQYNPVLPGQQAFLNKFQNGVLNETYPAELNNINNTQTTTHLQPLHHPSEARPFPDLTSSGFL

CYP1A1/AHH = settings: read-out: ED50 for induction of CYP1A1/AHH; porcine aortic endothelial; cited from earlier work

SMILES | ER T.A. (transcriptional activity) (ER) | cytotoxicity: not toxic up to concentration (A549 cell line) [µM] | Kd (AhR) [nM] | EC50 (CYP1A1/AHH) [nM]
Oc1ccc(C=Cc2cc(O)cc(O)c2)cc1 [Resveratrol, 3,5,4′-trihydroxystilbene, reference compound] | Ago | > 10 | – | –
Clc1cc2c(cc1Cl)Oc1cc(Cl)c(Cl)cc1O2 [TCDD, 2,3,7,8-tetrachlorodibenzo-p-dioxin] | – | – | 1 | 0.015
